Reference: ChEMBL document CHEMBL3045901, “Aryldiones incorporating a [1,4,5]oxadiazepane ring. Part 2: chemistry and biology of the cereal herbicide pinoxaden” (Pest Manag Sci, 2011)
Values after ≈ are worked out from the molar mass of the structure shown.

Columns and labels:
[1] = Solubility in water at 25 degC; assay type: physicochemical
Lolium perenne [2] = assay: Drug level in Lolium perenne (perennial ryegrass) measured at 0.1 g/l after 6 hr; assay type: ADME, organism-based; conditions: in vivo
[3] = Lipophilicity, log P of the compound at 25 degC; assay type: physicochemical; conditions: octanol/water
Avena fatua [4] = assay: Drug level in Avena fatua at 0.1 g/l measured after 6 hr in presence of safener cloquintocet-mexyl; assay type: ADME, organism-based; conditions: in vivo
Triticum aestivum [5] = assay: Drug level in winter Triticum aestivum cv. Soisson (wheat) measured after 6 hr; assay type: ADME, organism-based; conditions: in vivo
[6] = Aqueous hydrolysis of the compound at pH 5 at 20 degC; assay type: physicochemical; conditions: aqueous solution, read-out: DT50 (converted)
[7] = Aqueous hydrolysis of the compound at pH 9 at 20 degC; assay type: physicochemical; conditions: aqueous solution, read-out: DT50 (converted)
Hordeum vulgare [8] = assay: Drug level in winter Hordeum vulgare cv. Manitou (barley) at 0.1 g/l measured after 6 hr; assay type: ADME, organism-based; conditions: in vivo
[9] = Aqueous hydrolysis of the compound at pH 4 at 20 degC; assay type: physicochemical; conditions: aqueous solution, read-out: DT50 (converted)
Lolium perenne [10] = assay: Drug level in Lolium perenne (perennial ryegrass) measured at 0.1 g/l after 6 hr in presence of safener cloquintocet-mexyl; assay type: ADME, organism-based; conditions: in vivo
Triticum aestivum [11] = assay: Drug level in winter Triticum aestivum cv. Soisson (wheat) measured after 6 hr in presence of safener cloquintocet-mexyl; assay type: ADME, organism-based; conditions: in vivo
Hordeum vulgare [12] = assay: Drug level in winter Hordeum vulgare cv. Manitou (barley) at 0.1 g/l measured after 6 hr in presence of safener cloquintocet-mexyl; assay type: ADME, organism-based; conditions: in vivo
Hordeum vulgare [13] = assay: Drug metabolism in winter Hordeum vulgare cv. Manitou (barley) assessed as total inactive metabolites at 0.1 g/l measured after 16 hr; assay type: ADME, organism-based; conditions: in vivo
Avena fatua [14] = assay: Drug level in Avena fatua at 0.1 g/l measured after 6 hr; assay type: ADME, organism-based; conditions: in vivo
[15] = Aqueous hydrolysis of the compound at pH 7 at 20 degC; assay type: physicochemical; conditions: aqueous solution, read-out: DT50 (converted)

CCc1cc(C)cc(CC)c1-c1c(OC(=O)C(C)(C)C)n2n(c1=O)CCOCC2 [PINOXADEN]
solubility [1]: 200 µg/mL (≈ 499 µM) | Drug uptake (Lolium perenne [2]): 0% | logP [3]: 3.2 | Drug uptake (Avena fatua [4]): 0% | Drug uptake (Triticum aestivum [5]): 0% | half-life [6]: 25.3 days | half-life [7]: 0.3 days | Drug uptake (Hordeum vulgare [8]): 2.1% | half-life [9]: 24.1 days | Drug uptake (Lolium perenne [10]): 0% | Drug uptake (Triticum aestivum [11]): 0% | Drug uptake (Hordeum vulgare [12]): 1.5% | Drug metabolism (Hordeum vulgare [13]): 49.6% | Drug uptake (Avena fatua [14]): 0% | half-life [15]: 14.9 days
